Data from patent US11767330B2, “Citrate salt, pharmaceutical compositions, and methods of making and using the same” (Foghorn Therapeutics Inc., priority 2021, dated 2023).

Assay: Forced degradation study of compound D1 (HPLC)
Format: physicochemical
Experimental: Sample stock solution was prepared by weighing 60.74 mg of compound D1 to a 100 mL volumetric flask, dissolving by ultrasonic in 50 mL of diluent 2, diluting to volume with diluent 2, and mixing well.
Unstressed sample solution was prepared by weighing 21.32 mg of compound D1 into a 100 mL volumetric flask, dissolving by ultrasonic in 50 mL of diluent 3, diluting to volume with diluent 3, and mixing well.
Sample solution for pH=4.0 solution stability was prepared as follows. 20.96 mg of compound D1 were weighed into a 100 mL volumetric flask, dissolved by ultrasonic in 50 mL of pH=4.0 50 mM sodium citrate buffer, diluted to volume with pH=4.0 50 mM sodium citrate buffer, and mixed well.
Sample solution for pH=5.0 solution stability was prepared as follows. 20.75 mg of compound D were weighed into a 100 mL volumetric flask, dissolved by ultrasonic in 50 mL of pH=5.0 50 mM sodium citrate buffer, diluted to volume with pH=5.0 50 mM sodium citrate buffer, and mixed well.
Sample solution for pH=7.0 solution stability was prepared as follows. 19.91 mg of compound D1 and 684.71 mg KH2PO4 were weighed into a 100 mL volumetric flask, dissolved by ultrasonic in 50 mL of diluent 1, transferred 29.1 mL of 0.1N NaOH into the same volumetric flask, diluted to volume with diluent 1, and mixed well.
Acid degradation (1N HCl at RT). 3 mL of the sample stock solution (see above) were transferred into an 8 mL vial, 3 mL of 2N HCl solution were added, and the resulting mixture was mixed well. Samples were prepared in quadruplicate and kept at RT. At the sampling point, 2 mL of the sample were transferred into an 8 mL vial and neutralized with 1 mL of 2N NaOH.
Samples were prepared in triplicate and kept at RT. […]
Oxidation degradation (3% H2O2 at RT). 3 mL of the sample stock solution (see above) were transferred into an 8 mL vial, 3 mL of 6% H2O2 solution were added, and the resulting mixture was mixed well. Samples were prepared in quadruplicate and kept at RT. At the sampling time point, 2 mL of the solution were transferred into an 8 mL vial, neutralized with 1 mL of diluent 3, and mixed well.
Photolysis degradation (solid). About 60 mg of compound D1 were placed onto a watch glass. Samples were prepared in triplicate and placed in a photo chamber (see Table 8). At the sampling time point, the sample was placed in a vial for analysis. About 20.0±2.0 mg of the sample into a 100 mL volumetric flask, dissolved by ultrasonic in 50 mL of diluent 3, diluted to volume with diluent 3, and mixed well.
Dark control sample: one sample was prepared as described above for this test, but the watch glass was covered with aluminum foil, and processed as described above.
Solid: about 60 mg of compound D1 were weighted into an 8 mL vial. Samples were prepared in triplicate and placed in an oven at 80° C. At the sampling time point, about 20.0±2.0 mg of the sample were weighed into a 100 mL volumetric flask, dissolved by ultrasonic in 50 mL of diluent 3, diluted to volume with diluent 3, and mixed well.
Solution: 3 mL of the sample stock solution (see above) were transferred into an 8 mL vial. Samples were prepared in triplicate and placed them in an oven at 80° C. At the sampling time point, 1 mL of the solution was transferred into an 8 mL vial, neutralized with 2 mL of diluent 3, and mixed well.
Humidity degradation (92% RH for solid). About 60 mg of compound D1 were transferred into a 20 mL vial (without cap). Samples were prepared in triplicate and placed in a desiccator at 92% RH. At the sampling time point, about 20.0±2.0 mg of the sample were transferred into a 100 mL volumetric flask, dissolved by ultrasonic in 50 mL of diluent 3, diluted to volume with diluent 3, and mixed well.
Solution Stability. Samples were prepared tested under the solution stability conditions noted in Table 8. The sampling time points were as noted in Table 8.

[1] = Acid Hydrolysis, 1N HCl RT, 0 h
[2] = Acid Hydrolysis, 1N HCl RT, 1 d
[3] = Acid Hydrolysis, 1N HCl RT, 2 d
[4] = Acid Hydrolysis, 1N HCl RT, 3 d
[5] = Base Hydrolysis, 1N NaOH RT, 0 h
[6] = Base Hydrolysis, 1N NaOH RT, 1 h
[7] = Photolysis, 1.10 W/m^2/25° C. for solid, 13 h
[8] = Photolysis, 1.10 W/m^2/25° C. for solid, 26 h
[9] = Photolysis, 1.10 W/m^2/25° C. for solid, 39 h
[10] = Solution Stability, pH = 4.0, 50 mM Sodium citrate buffer at RT, 0 h
[11] = Solution Stability, pH = 4.0, 50 mM Sodium citrate buffer at RT, 1 d
[12] = Solution Stability, pH = 4.0, 50 mM Sodium citrate buffer at RT, 3 d
[13] = Solution Stability, pH = 4.0, 50 mM Sodium citrate buffer at RT, 7 d
[14] = Solution Stability, pH = 5.0 50 mM Sodium citrate buffer at RT, 0 h
[15] = Solution Stability, pH = 5.0 50 mM Sodium citrate buffer at RT, 1 d
[16] = Solution Stability, pH = 5.0 50 mM Sodium citrate buffer at RT, 3 d
[17] = Solution Stability, pH = 5.0 50 mM Sodium citrate buffer at RT, 7 d
[18] = Solution Stability, pH = 7.0 Phosphate buffer at RT, 0 h
[19] = Solution Stability, pH = 7.0 Phosphate buffer at RT, 1 d
[20] = Solution Stability, pH = 7.0 Phosphate buffer at RT, 2 d

Structure (SMILES): COc1cc(-c2cn(C)c(=O)c3cnc(N4CCC4)cc23)cc(OC)c1CN1CCC(CN2CCC3(CC2)CN(c2ccc4c(c2)C(=O)N(C2CCC(=O)NC2=O)C4)C3)CC1 (racemic) [Compound D1, 3-[6-(7-[[1-([4-[6-(azetidin-1-yl)-2-methyl-1-oxo-2,7-naphthyridin-4-yl]-2,6-dimethoxyphenyl]methyl)piperidin-4-yl]methyl]-2,7-diazaspiro[3.5]nonan-2-yl)-1-oxo-3H-isoindol-2-yl]piperidine-2,6-dione]
- % Degradation [1]: 0.438%
- % Mass Balance [1]: 108.2%
- Area % [1]: 93.734%
- % Degradation [2]: 4.781%
- % Mass Balance [2]: 106.5%
- Area % [2]: 89.391%
- % Degradation [3]: 8.992%
- % Mass Balance [3]: 107.6%
- Area % [3]: 85.180%
- % Degradation [4]: 12.125%
- % Mass Balance [4]: 106.9%
- Area % [4]: 82.047%
- % Degradation [5]: 25.210%
- % Mass Balance [5]: 104.0%
- Area % [5]: 68.962%
- % Degradation [6]: 76.841%
- % Mass Balance [6]: 98.0%
- Area % [6]: 17.331%
- % Degradation (Humidity, 92% RH, 1 d): 1.245%
- % Mass Balance (Humidity, 92% RH, 1 d): 98.8%
- Area % (Humidity, 92% RH, 1 d): 92.927%
- % Degradation (Humidity, 92% RH, 3 d): 2.091%
- % Mass Balance (Humidity, 92% RH, 3 d): 99.5%
- Area % (Humidity, 92% RH, 3 d): 92.081%
- % Degradation (Humidity, 92% RH, 7 d): 3.282%
- % Mass Balance (Humidity, 92% RH, 7 d): 99.8%
- Area % (Humidity, 92% RH, 7 d): 90.890%
- % Degradation (Oxidation, 3% H2O2 RT, 0 h): 16.184%
- % Mass Balance (Oxidation, 3% H2O2 RT, 0 h): 106.8%
- Area % (Oxidation, 3% H2O2 RT, 0 h): 77.988%
- % Degradation (Oxidation, 3% H2O2 RT, 8 h): 60.417%
- % Mass Balance (Oxidation, 3% H2O2 RT, 8 h): 105.2%
- Area % (Oxidation, 3% H2O2 RT, 8 h): 33.755%
- % Degradation [7]: 3.088%
- % Mass Balance [7]: 101.0%
- Area % [7]: 91.084%
- % Degradation [8]: 3.256%
- % Mass Balance [8]: 92.1%
- Area % [8]: 90.916%
- % Degradation [9]: 3.436%
- % Mass Balance [9]: 105.7%
- Area % [9]: 90.736%
- % Degradation [10]: 0.656%
- % Mass Balance [10]: 90.1%
- Area % [10]: 93.516%
- % Degradation [11]: 0.841%
- % Mass Balance [11]: 93.7%
- Area % [11]: 93.331%
- % Degradation [12]: 1.299%
- % Mass Balance [12]: 93.9%
- Area % [12]: 92.873%
- % Degradation [13]: 2.042%
- % Mass Balance [13]: 93.7%
- Area % [13]: 92.130%
- % Degradation [14]: 1.674%
- % Mass Balance [14]: 95.3%
- Area % [14]: 92.498%
- % Degradation [15]: 1.922%
- % Mass Balance [15]: 103.1%
- Area % [15]: 92.250%
- % Degradation [16]: 2.133%
- % Mass Balance [16]: 100.0%
- Area % [16]: 92.039%
- % Degradation [17]: 4.658%
- % Mass Balance [17]: 100.8%
- Area % [17]: 89.514%
- % Degradation [18]: 1.534%
- % Mass Balance [18]: 97.1%
- Area % [18]: 92.638%
- % Degradation [19]: 8.920%
- % Mass Balance [19]: 102.6%
- Area % [19]: 85.252%
- % Degradation [20]: 15.170%
- % Mass Balance [20]: 100.6%
- Area % [20]: 79.002%
- % Degradation (Thermal, 80° C., Solid, 1 d): 0.724%
- % Mass Balance (Thermal, 80° C., Solid, 1 d): 105.7%
- Area % (Thermal, 80° C., Solid, 1 d): 93.448%
- % Degradation (Thermal, 80° C., Solid, 3 d): 0.978%
- % Mass Balance (Thermal, 80° C., Solid, 3 d): 97.6%
- Area % (Thermal, 80° C., Solid, 3 d): 93.194%
- % Degradation (Thermal, 80° C., Solid, 7 d): 11.980%
- % Mass Balance (Thermal, 80° C., Solid, 7 d): 92.7%
- Area % (Thermal, 80° C., Solid, 7 d): 82.192%
- % Degradation (Thermal, 80° C., Solution, 1 d): 0.119%
- % Mass Balance (Thermal, 80° C., Solution, 1 d): 100.5%
- Area % (Thermal, 80° C., Solution, 1 d): 94.053%
- % Degradation (Thermal, 80° C., Solution, 7 d): 62.235%
- % Mass Balance (Thermal, 80° C., Solution, 7 d): 104.2%
- Area % (Thermal, 80° C., Solution, 7 d): 31.937%
- Area % (Unstressed): 94.172%
